Key:
GAL4RXR + VP16CfEcR [1] = assay: Transactivation of reporter genes through switch 1.3 in 293 cells; type: cell-based, Choristoneura fumiferana; conditions: switch 1.3 GAL4RXR + VP16CfEcR, pGAL4RELuc
Experimental: (§1) The same procedures described for CHO were followed for 293 cells except that the cells were plated in biocoated plates to avoid clumping.
(§2) Cells were harvested 24-48 hr after adding ligands. […] Twenty μl of lysate was assayed.

GAL4RXR + VP16DmEcR = molecular target: T1, GAL4RXR + VP16DmEcR (Drosophila melanogaster, UniProt P34021); assay: Transactivation of reporter genes through switch 1.4 in CV1 cells; type: cell-based; set-up: expressed in transfected cells; host or cells: CV1 cells (transient co-transfection); conditions: switch 1.4 GAL4RXR + VP16DmEcR, pGAL4RELuc
T1 sequence (P34021 254-878): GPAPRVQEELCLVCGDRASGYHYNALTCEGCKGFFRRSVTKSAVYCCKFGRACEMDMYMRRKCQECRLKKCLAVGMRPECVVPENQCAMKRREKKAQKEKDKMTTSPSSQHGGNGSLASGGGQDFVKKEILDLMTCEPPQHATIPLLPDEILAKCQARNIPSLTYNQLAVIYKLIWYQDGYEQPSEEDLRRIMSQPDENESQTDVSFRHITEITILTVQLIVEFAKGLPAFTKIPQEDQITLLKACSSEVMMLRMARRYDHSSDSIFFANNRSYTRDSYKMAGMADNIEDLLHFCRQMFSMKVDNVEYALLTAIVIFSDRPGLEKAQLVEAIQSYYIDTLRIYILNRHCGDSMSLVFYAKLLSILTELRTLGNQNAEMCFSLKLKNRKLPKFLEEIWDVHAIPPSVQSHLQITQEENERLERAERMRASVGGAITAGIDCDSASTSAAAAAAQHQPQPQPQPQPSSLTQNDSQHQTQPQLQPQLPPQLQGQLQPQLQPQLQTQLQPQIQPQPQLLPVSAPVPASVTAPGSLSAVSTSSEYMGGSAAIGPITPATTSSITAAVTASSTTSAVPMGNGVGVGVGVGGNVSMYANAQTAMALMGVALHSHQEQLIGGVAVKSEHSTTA
T1 sequence (P28700 206-467 partner limits assumed): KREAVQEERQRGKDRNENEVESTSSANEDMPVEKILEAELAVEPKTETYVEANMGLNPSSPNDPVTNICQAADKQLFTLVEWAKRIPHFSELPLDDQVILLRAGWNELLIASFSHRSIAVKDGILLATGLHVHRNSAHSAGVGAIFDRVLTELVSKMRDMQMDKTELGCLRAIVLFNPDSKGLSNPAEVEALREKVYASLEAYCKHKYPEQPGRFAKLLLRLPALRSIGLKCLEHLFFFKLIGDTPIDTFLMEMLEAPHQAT
Experimental: This construct was prepared in the same way as switch 1.3 except CfEcRCDEF was replaced with DmEcRCDEF (SEQ ID NO: 6).
(§3) The same procedures described for NIH3T3 cells were followed for CV1 cells
as §2

VP16CfEcR [2] = assay: Transactivation of reporter genes through switch 1.7 in CHO cells; type: cell-based, Choristoneura fumiferana; conditions: switch 1.7 VP16CfEcR, pEcRELuc
Experimental: (§4) Six ecdysone response elements (“EcRE”; SEQ ID NO: 59) from the hsp27 gene were placed upstream of the promoter and a luciferase gene (SEQ ID NO: 57). This switch most probably uses endogenous RXR.
The cells were harvested and reporter activity was assayed.
as §2

GAL4RXR + VP16CfEcR [3] = assay: Transactivation of reporter genes through switch 1.3 in 3T3 cells
From the text: In various cellular backgrounds, including mammalian cells, insect ecdysone receptor (EcR) heterodimerizes with retinoid X receptor (RXR) and, upon binding of ligand, transactivates genes under the control of ecdysone response elements. Applicants constructed several EcR-based gene expression cassettes based on the spruce budworm Choristoneura fumiferana EcR (“CfEcR”; full length polynucleotide and amino acid sequences are set forth in SEQ ID NO: 49 and SEQ ID NO: 50, respectively), C. fumiferana ultraspiracle (“CfUSP”; full length polynucleotide and amino acid sequences are set forth in SEQ ID NO: 51 and SEQ ID NO: 52, respectively), and mouse Mus musculus RXRα (MmRXRα; full length polynucleotide and amino acid sequences are set forth in SEQ ID NO: 53 and SEQ ID NO: 54, respectively). The prepared receptor constructs comprise a ligand binding domain of EcR and of RXR or of USP; a DNA binding domain of GAL4 or of EcR; and an activation domain of VP16. The reporter constructs include a reporter gene, luciferase or LacZ, operably linked to a synthetic promoter construct that comprises either GAL4 or EcR/USP binding sites (response elements). Various combinations of these receptor and reporter constructs were cotransfected into CHO, NIH3T3, CV1 and 293 cells. […] Reporter gene expression activities were assayed at 24 hr or 48 hr after ligand addition.
MmRXRDEF (SEQ ID NO: 22) was fused to a GAL4DNABD (SEQ ID NO: 41) and CfEcRCDEF (SEQ ID NO: 1) was fused to a VP16AD (SEQ ED NO: 45).
The same procedures described for CHO cells were followed for 3T3 cells as well with two modifications. The cells were plated when they reached 50% confluency. 125,000 or 50,000 or 25,000 cells were plated per well of 6- or 12- or 24-well plates respectively. The GAl4EcR/VP16RXR and reporter vector DNAs were transfected into NIH3T3 cells, the transfected cells were grown in medium containing PonA, MurA, N-(2-ethyl-3-methoxybenzoyl)-N′-(3,5-dimethylbenzoyl)-N′-t-butylhydrazine, or N-(3,4-(1,2-ethylenedioxy)-2-methylbenzoyl)-N′-(3,5-dimethylbenzoyl)-N′-tert-butylhydrazine for 48 hr. The ligand treatments were performed as described in the CHO cell section above.
Cells were harvested 24-48 hr after adding ligands. 125, 250, or 500 μl of passive lysis buffer (part of Dual-luciferase™ reporter assay system from Promega Corporation) were added to each well of 24- or 12- or […] respectively. The plates were placed on a rotary shaker for 15 min. Twenty μl of lysate was assayed. Luciferase activity was measured using Dual-luciferase™ reporter assay system from Promega Corporation following the manufacturer's instructions. β-Galactosidase was measured using Galacto-Star™ assay kit from TROPIX following the manufacturer's instructions. All luciferase and β-galactosidase activities were normalized using Renilla luciferase as a standard. Fold activities were calculated by dividing normalized relative light units (“RLU”) in ligand treated cells with normalized RLU in DMSO treated cells (untreated control).

VP16CfEcR [4] = assay: Transactivation of reporter genes through switch 1.7 in 293 cells; type: cell-based, Choristoneura fumiferana; conditions: switch 1.7 VP16CfEcR, pEcRELuc
Experimental: as §4, §1, §2

GAL4RXR + VP16CfEcR [5] = assay: Transactivation of reporter genes through switch 1.3 in CV1 cells; type: cell-based, Choristoneura fumiferana; conditions: switch 1.3 GAL4RXR + VP16CfEcR, pGAL4RELuc
Experimental: as §3, §2

CCc1c(OC)cccc1C(=O)NN(C(=O)c1cc(C)cc(C)c1)C(C)(C)C [N-(2-ethyl-3-methoxybenzoyl)-N′-(3,5-dimethylbenzoyl)-N′-tert-butylhydrazine]
Mean Fold Activation Through N-(2-ethyl-3-methoxybenzoyl)-N′-(3,5-dimethylbenzoyl)-N′-t-butylhydrazine (GAL4RXR + VP16CfEcR [1]): 17 fold
Mean Fold Activation Through N-(2-ethyl-3-methoxybenzoyl)-N′-(3,5-dimethylbenzoyl)-N′-t-butylhydrazine (GAL4RXR + VP16DmEcR): 80 fold
Mean Fold Activation with 50 μM N-(2-ethyl-3-methoxybenzoyl)-N′-(3,5-dimethylbenzoyl)-N′-t-butylhydrazine (VP16CfEcR [2]): 36 fold
Mean Fold Induction at 1.0 μM Concentration (GAL4RXR + VP16CfEcR [3]; GAL4MmRXRDEF/VP16CfEcRCDEF (switch 1.3), 1.0 μM ligand): 71 fold
Mean Fold Activation Through N-(2-ethyl-3-methoxybenzoyl)-N′-(3,5-dimethylbenzoyl)-N′-t-butylhydrazine (GAL4RXR + VP16CfEcR [3]; switch 1.3 GAL4RXR + VP16CfEcR, pGAL4RELuc): 47 fold
Mean Fold Activation Through N-(2-ethyl-3-methoxybenzoyl)-N′-(3,5-dimethylbenzoyl)-N′-t-butylhydrazine (VP16CfEcR [4]): 2 fold
Mean Fold Activation Through N-(2-ethyl-3-methoxybenzoyl)-N′-(3,5-dimethylbenzoyl)-N′-t-butylhydrazine (GAL4RXR + VP16CfEcR [5]): 25 fold

Reference: patent US8822754B2, “Ecdysone receptor-based inducible gene expression system” (Intrexon Corporation, priority 2000, dated 2014)
